Test results as given in patent US12414915B2, “Liquid naloxone spray” (HIKMA PHARMACEUTICALS USA INC., priority 2023, dated 2025).
Read-outs that look alike come from different tables or passages of the source.

Test: Phase I five-way crossover: intranasal and sublingual naloxone spray 8 mg and 16 mg versus 0.4 mg intramuscular, plasma concentrations
Format: in vivo, human subjects
Settings: for concentration at 0.03 h / concentration at 0.07 h / concentration at 0.1 h / concentration at 0.13 h / concentration at 0.17 h / concentration at 0.5 h / concentration at 1 h / concentration at […] / Cmax / AUC: human, plasma; for concentration at 0.03 h / concentration at 0.07 h / concentration at 0.1 h / concentration at 0.13 h / concentration at 0.17 h / concentration at 0.5 h / concentration at 1 h / concentration at […]: mean ± SD; for concentration at […]: read-out: Conc. @ 0.25 h; for AUC: time-zero to 1 hour post dose
Procedure: 145 subjects were randomly assigned to one of five groups including 8 milligrams sublingual dose, 16 milligrams sublingual dose, 8 milligrams intranasal dose, 16 milligrams intranasal dose and 0.4 milligram naloxone dose. Plasma concentrations were taken at pre-dose, 0.03, 0.07, 0.1, 0.13, 0.17, 0.25, 0.5, 1, 2 4, 8 and 12 hours' post-dose.

## C=CCN1CC[C@]23c4c5ccc(O)c4O[C@H]2C(=O)CC[C@@]3(O)[C@H]1C5 [naloxone, Naloxone]
2 and 4 hours post-dose
  mean plasma concentration, 16 mg intranasal compared with 16 mg sublingual: significantly lower
All time points up to 1 hour after administration
  plasma concentration, intranasal compared with sublingual administration: significantly greater plasma concentration
intramuscular, 0.4 mg IM
  concentration at 0.03 h: 0.15 ± 0.29 ng/mL
  concentration at 0.07 h: 0.36 ± 0.38 ng/mL
  concentration at 0.1 h: 0.51 ± 0.41 ng/mL
  concentration at 0.13 h: 0.58 ± 0.39 ng/mL
  concentration at 0.17 h: 0.63 ± 0.36 ng/mL
  concentration at 0.5 h: 0.62 ± 0.22 ng/mL
  concentration at 1 h: 0.51 ± 0.16 ng/mL
  concentration at […]: 0.69 ± 0.4 ng/mL
other: intranasal, 8 mg IN
  concentration at 0.03 h: 6.19 ± 14.5 ng/mL
  concentration at 0.07 h: 13.9 ± 19.1 ng/mL
  concentration at 0.1 h: 18.8 ± 15.6 ng/mL
  concentration at 0.13 h: 20.5 ± 13.1 ng/mL
  concentration at 0.17 h: 20 ± 10.7 ng/mL
  concentration at 0.5 h: 9.88 ± 4.42 ng/mL
  concentration at 1 h: 6.29 ± 2.7 ng/mL
  concentration at […]: 16.5 ± 6.71 ng/mL
  Cmax: 20.5 ng/mL
  AUC: 11.2 ng·h/mL
other: intranasal, 16 mg IN
  concentration at 0.03 h: 9.29 ± 14.3 ng/mL
  concentration at 0.07 h: 29.7 ± 28 ng/mL
  concentration at 0.1 h: 46.3 ± 36.6 ng/mL
  concentration at 0.13 h: 49.3 ± 34 ng/mL
  concentration at 0.17 h: 45.8 ± 24.6 ng/mL
  concentration at 0.5 h: 22.4 ± 8.19 ng/mL
  concentration at 1 h: 14.1 ± 5.61 ng/mL
  concentration at […]: 35 ± 13.2 ng/mL
  Cmax: 49.3 ng/mL
  AUC: 24.9 ng·h/mL
other: sublingual, 8 mg SL
  concentration at 0.03 h: 0.18 ± 0.29 ng/mL
  concentration at 0.07 h: 0.62 ± 0.96 ng/mL
  concentration at 0.1 h: 0.88 ± 0.94 ng/mL
  concentration at 0.13 h: 1.17 ± 1.13 ng/mL
  concentration at 0.17 h: 1.54 ± 1.1 ng/mL
  concentration at 0.5 h: 2.03 ± 1.28 ng/mL
  concentration at 1 h: 1.61 ± 0.85 ng/mL
  concentration at […]: 1.98 ± 1.29 ng/mL
  Cmax: 2.03 ng/mL
  AUC: 1.68 ng·h/mL
other: sublingual, 16 mg SL
  concentration at 0.03 h: 0.52 ± 0.8 ng/mL
  concentration at 0.07 h: 1.69 ± 1.85 ng/mL
  concentration at 0.1 h: 2.31 ± 2.08 ng/mL
  concentration at 0.13 h: 3.16 ± 3.39 ng/mL
  concentration at 0.17 h: 3.63 ± 3.83 ng/mL
  concentration at 0.5 h: 3.94 ± 2.96 ng/mL
  concentration at 1 h: 2.96 ± 1.66 ng/mL
  concentration at […]: 4.39 ± 4.24 ng/mL
  Cmax: 4.39 ng/mL
  AUC: 3.42 ng·h/mL
0.4 mg IM
  Cmax: 0.69 ng/mL
  AUC: 0.57 ng·h/mL
Intranasal or sublingual, 8 mg or 16 mg, all time points up to 1 hour, fasted
  plasma concentration compared with 0.4 mg intramuscular administration: significantly greater plasma concentrations
